Measured values published in patent EP0574185B1, “PGE1 analogs” (NEWPHARMA INTERNATIONAL CORPORATION, priority 1992, dated 1993).

Legend:
[1] = system: isolated uterus under diestrous (without any spontaneous contractions); assay: B2: effect on isolated uterus of diestrous rat without spontaneous contractions (De Jalon solution with sodium diclofenac, non-cumulative curves); design: species or system Wistar rats; conditions: for Area (g of tension/2 min): B2, basal 1,96
Protocol: (B1)- Concentration-response curves on isolated rat uterus under diestrous condition were carried out. Wistar rats weighing 250 g to 300 g were employed. The diestrous phase was detected by a daily vaginal smear. The uterus was dissected out and a portion of a horn was placed in a 10 ml organ bath in a similar way to that described in part A. The bath temperature was maintained at 37°C, bubbled with a mixture of 95 % O2 and 5 % CO2 in a Krebs nutrient solution. The organ was left to stabilize for one hour. The isolated uterus presented basal spontaneous contractions under these experimental conditions. Cumulative concentration-response curves were carried out with the addition of either 100 µl or 300 µl of solutions of either natural prostaglandins or B-407 in concentrations of 10^-10 M to 10^-6 M, each 15 minutes without any washing. Uterine contractions and quantitation were performed as described in (A). (B2)- Concentration-response curves in isolated uterus under diestrous (without any spontaneous contractions) were carried out. Sodium diclofenac was added to De Jalon nutrient solution to a final concentration of 4x10^-6 M. The organ was left to stabilize until the absence of spontaneous contractions. Non-cumulative concentration-response curves were obtained. Recordings of the contractions and their quantitation were performed as described in (A).
The frequency and magnitude of the responses were globally evaluated by calculating the total area recorded at a fixed time period as will be further explained. The areas under the curve of the recording paper, over 15 minutes periods, were cut and weighed both in the concentration-response curves and in the potentiating experiments.
The calibration was made by weighing a piece of paper which corresponded to a tension of 1 g at the working sensitivity along 2 minutes. Therefore, a relationship of area expressed in g/2 min was obtained and then the weights of the areas of the responses were transformed to unities of area. The results were expressed as the mean ± the standard error of the areas obtained. The statistical evaluation of the differences was carried out either by ANOVA or by Student's-t-test, as appropriate.

[2] = Diarrheagenic effect in mice; design: species or system Swiss mice; conditions: mouse, in vivo
Protocol: The diarrheagenic effect of the synthetic PGE1 analog B-407 was evaluated in Swiss mice. The effect of the intraperitoneal and intravaginal routes of administration were studied as follows:
Six groups of ten mice (25 to 30 g) each (5 ♂ and 5 ♀) were used. They received i.p. doses of 0; 1; 3; 10; 30 and 100 µg/kg of the test drug. The diarrheagenic response was evaluated on an "all-or-none" basis as described in section C.
A seven points dose-response curve was performed for B-407. Eight groups of six mice (18 to 25 g) each received doses of 0; 10; 18; 32; 56; 100; 160 and 250 µg/kg of B-407.
The intravaginal administration was made through a polyethylene catheter attached to a 1 ml syringe. This system allows the delivery of volumes of 10 to 15 µl.
The animals were evaluated in an "all-or-none" basis as the ratio of the number of animals with diarrhea over the total number of mice in the group. The median effective doses (ED50) with their fiducial limits and the statistics were performed according Litchfield and Wilcoxon [Eur. J. Pharmacol. 34, 105 (1975); J. Pharmacol. Exp. Ther., 96, 99 (1949)].

CCCCC(C)(O)C/C=C/[C@H]1[C@H](O)CC(=O)[C@@H]1CCCC/C=C/C(=O)OC (mixture of isomers) [B-407, trans-Δ^2-15-deoxy-16-hydroxy-16-methyl PGE1 methyl ester]
maximum response of the uterotonic effect relative to the basal one ([1]; B2, with diclofenac): duplicates the basal one
Area (g of tension/2 min) ([1]; 1x10^-6 M): 4,24 g of tension/2 min
Area (g of tension/2 min) ([1]; 1x10^-7 M): 3,73 g of tension/2 min
Area (g of tension/2 min) ([1]; 1x10^-8 M): 2,10 g of tension/2 min
Area (g of tension/2 min) ([1]; 1x10^-9 M): 1,91 g of tension/2 min
ED50 ([2]; ip, confidence limits 1,95 to 8,65, n 10): 0.00412 mg/kg
ED50 ([2]; i.vag., confidence limits 27,4 to 124,9, n 6): 0.0583 mg/kg
